What was measured:
Assay in all cases: Biochemical kinase profiling (Life Technologies)
AKT1 (PKB alpha) = AKT1 (PKB alpha) (Homo sapiens, UniProt P31749)
Experimental: (§1) Purified PI3K Class I Lipid Kinase, including p110α/p85α, p110β/p85α, p110γ, and p110δ/p85α (Promega, Madison, WI, USA), was respectively incubated with B591 for 30 min at room temperature. The activity of PI3K was evaluated using a PI3-Kinase Activity ELISA kit (K-1000s, Echelon, Salt Lake City, UT, USA) according to the manufacture’s instructions. The assay is a competitive ELISA in which the signal is inversely proportional to the amount of PI(3,4,5)P3 produced. After the PI3-Kinase reactions are complete, reaction products are first mixed and incubated with a PI(3,4,5)P3 detector protein, then added to the PI(3,4,5)P3-coated microplate for competitive binding. A peroxidase-linked secondary detector and colorimetric detection is used to detect PI(3,4,5)P3 detector binding to the plate. The colorimetric signal is inversely proportional to the amount of PI(3,4,5)P3 produced by PI3-Kinase. The absorbance was measured at 450 nm with a Multilabel Reader (PerkinElmer, Waltham, MA, USA). ATP competition assays were executed with varying concentrations of ATP, and five concentrations of ATP were 5 μM, 25 μM, 50 μM, 100 μM, and 200 μM respectively. The IC50 values for inhibition of PI3Kβ by B591 were determined at indicated concentrations of ATP. In addition, B591 selectivity was tested against 39 kinases at Life Technologies.

AKT2 (PKB beta) = AKT2 (PKB beta) (Homo sapiens, UniProt P31751)
Experimental: as §1

AKT3 (PKB gamma) = AKT3 (PKB gamma) (Homo sapiens, UniProt Q9Y243)
Experimental: as §1

AMPK A1/B1/G1 = AMPK A1/B1/G1 (Homo sapiens, UniProt P54619+Q13131+Q9Y478)
Experimental: as §1

AMPK A2/B1/G1 = AMPK A2/B1/G1 (Homo sapiens, UniProt P54619+P54646+Q9Y478)
Experimental: as §1

DNA-PK = DNA-PK (Homo sapiens, UniProt P78527)
Experimental: as §1

EGFR (ErbB1) = biological target: T1, EGFR (ErbB1) (Homo sapiens, UniProt P00533)
T1 construct: purchased Life Technologies
Experimental: as §1

EPHA1 = biological target: T2, EPHA1 (Homo sapiens, UniProt P21709)
T2 construct: purchased Life Technologies
Experimental: as §1

EPHA8 = biological target: T3, EPHA8 (Homo sapiens, UniProt P29322)
T3 construct: purchased Life Technologies
Experimental: as §1

EPHB1 = biological target: T4, EPHB1 (Homo sapiens, UniProt P54762)
T4 construct: purchased Life Technologies
T4 sequence (P54762 18-984): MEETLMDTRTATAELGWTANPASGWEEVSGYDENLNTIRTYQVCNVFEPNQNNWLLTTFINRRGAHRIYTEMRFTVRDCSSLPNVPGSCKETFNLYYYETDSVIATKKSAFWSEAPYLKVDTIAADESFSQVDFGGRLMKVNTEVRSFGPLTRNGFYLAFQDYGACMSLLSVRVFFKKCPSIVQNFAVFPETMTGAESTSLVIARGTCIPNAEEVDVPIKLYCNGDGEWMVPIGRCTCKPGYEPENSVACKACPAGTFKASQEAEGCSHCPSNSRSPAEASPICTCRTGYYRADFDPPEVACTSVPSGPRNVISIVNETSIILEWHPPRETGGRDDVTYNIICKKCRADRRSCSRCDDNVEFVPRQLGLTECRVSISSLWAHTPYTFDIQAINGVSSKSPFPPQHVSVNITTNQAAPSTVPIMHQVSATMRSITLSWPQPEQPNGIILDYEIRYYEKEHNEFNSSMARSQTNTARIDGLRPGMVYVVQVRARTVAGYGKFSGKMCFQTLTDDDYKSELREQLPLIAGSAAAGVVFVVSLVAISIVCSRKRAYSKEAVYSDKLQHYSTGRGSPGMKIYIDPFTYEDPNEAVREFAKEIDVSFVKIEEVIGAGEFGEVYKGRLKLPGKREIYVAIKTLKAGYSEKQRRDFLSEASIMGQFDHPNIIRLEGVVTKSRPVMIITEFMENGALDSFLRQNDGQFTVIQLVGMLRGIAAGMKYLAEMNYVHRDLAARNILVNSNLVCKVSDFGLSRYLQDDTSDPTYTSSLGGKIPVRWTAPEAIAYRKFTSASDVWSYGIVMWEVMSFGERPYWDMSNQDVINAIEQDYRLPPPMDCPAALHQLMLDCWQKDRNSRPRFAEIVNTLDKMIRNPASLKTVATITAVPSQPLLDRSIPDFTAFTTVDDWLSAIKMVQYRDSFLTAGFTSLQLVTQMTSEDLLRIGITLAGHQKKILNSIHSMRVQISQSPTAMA
Experimental: as §1

ERBB2 (HER2) = biological target: T5, ERBB2 (HER2) (Homo sapiens, UniProt P04626)
T5 construct: purchased Life Technologies
Experimental: as §1

FGFR1 = biological target: T6, FGFR1 (Homo sapiens, UniProt P11362)
T6 construct: purchased Life Technologies
Experimental: as §1

FGFR2 = biological target: T7, FGFR2 (Homo sapiens, UniProt P21802)
T7 construct: purchased Life Technologies
Experimental: as §1

FGFR4 = biological target: T8, FGFR4 (Homo sapiens, UniProt P22455)
T8 construct: purchased Life Technologies
Experimental: as §1

FLT1 (VEGFR1) = biological target: T9, FLT1 (VEGFR1) (Homo sapiens, UniProt P17948)
T9 construct: purchased Life Technologies
T9 sequence (P17948 27-1338): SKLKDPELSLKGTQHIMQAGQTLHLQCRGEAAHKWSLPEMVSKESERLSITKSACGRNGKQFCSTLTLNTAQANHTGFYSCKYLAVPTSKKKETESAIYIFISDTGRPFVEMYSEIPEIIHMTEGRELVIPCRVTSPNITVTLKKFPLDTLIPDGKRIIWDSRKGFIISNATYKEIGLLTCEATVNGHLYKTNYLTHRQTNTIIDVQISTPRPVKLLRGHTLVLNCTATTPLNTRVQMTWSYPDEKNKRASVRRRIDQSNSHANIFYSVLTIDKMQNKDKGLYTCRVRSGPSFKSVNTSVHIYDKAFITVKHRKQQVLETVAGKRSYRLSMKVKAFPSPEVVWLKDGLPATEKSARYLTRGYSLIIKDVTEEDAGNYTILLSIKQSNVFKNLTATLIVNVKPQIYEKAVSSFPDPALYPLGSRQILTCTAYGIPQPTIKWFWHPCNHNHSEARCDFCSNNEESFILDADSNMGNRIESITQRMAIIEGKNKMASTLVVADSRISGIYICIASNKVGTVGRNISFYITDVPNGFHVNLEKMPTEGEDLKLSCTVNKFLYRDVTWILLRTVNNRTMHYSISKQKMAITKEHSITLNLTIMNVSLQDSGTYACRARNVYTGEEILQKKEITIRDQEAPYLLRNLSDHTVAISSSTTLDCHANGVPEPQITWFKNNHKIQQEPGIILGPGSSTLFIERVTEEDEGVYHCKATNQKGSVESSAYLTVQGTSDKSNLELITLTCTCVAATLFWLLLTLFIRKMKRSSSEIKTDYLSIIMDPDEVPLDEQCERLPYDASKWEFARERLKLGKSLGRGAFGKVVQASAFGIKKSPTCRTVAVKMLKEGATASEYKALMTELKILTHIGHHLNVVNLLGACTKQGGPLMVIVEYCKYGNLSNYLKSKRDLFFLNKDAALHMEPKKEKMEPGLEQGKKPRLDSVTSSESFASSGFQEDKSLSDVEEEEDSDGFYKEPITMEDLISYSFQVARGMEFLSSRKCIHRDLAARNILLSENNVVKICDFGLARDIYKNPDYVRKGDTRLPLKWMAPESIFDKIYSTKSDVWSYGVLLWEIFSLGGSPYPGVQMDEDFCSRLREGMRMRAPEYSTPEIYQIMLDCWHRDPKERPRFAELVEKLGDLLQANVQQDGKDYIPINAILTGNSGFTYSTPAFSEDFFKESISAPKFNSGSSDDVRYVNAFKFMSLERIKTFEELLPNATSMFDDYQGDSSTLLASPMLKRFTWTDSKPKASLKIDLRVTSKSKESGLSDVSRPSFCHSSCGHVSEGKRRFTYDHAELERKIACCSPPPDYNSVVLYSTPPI
Experimental: as §1

FYN = FYN (Homo sapiens, UniProt P06241)
FYN, sequence (P06241 whole entry): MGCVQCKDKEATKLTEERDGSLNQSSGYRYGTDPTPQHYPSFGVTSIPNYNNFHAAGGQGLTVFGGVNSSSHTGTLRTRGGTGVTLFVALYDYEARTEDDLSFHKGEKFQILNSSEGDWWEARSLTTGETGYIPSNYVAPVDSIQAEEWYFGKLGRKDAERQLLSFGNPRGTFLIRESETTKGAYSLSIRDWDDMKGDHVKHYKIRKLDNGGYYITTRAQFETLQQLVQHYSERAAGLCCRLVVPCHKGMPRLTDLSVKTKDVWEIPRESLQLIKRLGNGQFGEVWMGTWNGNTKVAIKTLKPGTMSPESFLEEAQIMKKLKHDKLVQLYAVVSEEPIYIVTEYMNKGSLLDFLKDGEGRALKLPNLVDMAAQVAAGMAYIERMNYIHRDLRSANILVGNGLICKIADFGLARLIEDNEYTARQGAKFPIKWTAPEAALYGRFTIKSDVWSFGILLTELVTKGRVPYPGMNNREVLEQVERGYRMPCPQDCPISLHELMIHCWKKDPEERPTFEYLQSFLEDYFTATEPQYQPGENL
Experimental: as §1

GSK3A (GSK3 alpha) = GSK3A (GSK3 alpha) (Homo sapiens, UniProt P49840)
Experimental: as §1

GSK3B (GSK3 beta) = GSK3B (GSK3 beta) (Homo sapiens, UniProt P49841)
GSK3B (GSK3 beta), sequence (P49841 whole entry): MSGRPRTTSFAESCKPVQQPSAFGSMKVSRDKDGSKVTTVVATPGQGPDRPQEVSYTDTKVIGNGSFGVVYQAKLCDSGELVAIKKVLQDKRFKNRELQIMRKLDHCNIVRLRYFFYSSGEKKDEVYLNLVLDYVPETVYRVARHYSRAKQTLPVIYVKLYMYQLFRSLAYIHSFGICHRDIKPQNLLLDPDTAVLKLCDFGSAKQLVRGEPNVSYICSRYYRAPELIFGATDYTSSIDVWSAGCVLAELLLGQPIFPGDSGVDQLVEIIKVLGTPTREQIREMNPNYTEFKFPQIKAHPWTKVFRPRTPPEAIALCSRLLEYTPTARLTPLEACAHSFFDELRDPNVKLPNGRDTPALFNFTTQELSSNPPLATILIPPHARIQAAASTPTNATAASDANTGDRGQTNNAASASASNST
Experimental: as §1

JAK1 = JAK1 (Homo sapiens, UniProt P23458)
Experimental: as §1

KDR (VEGFR2) = biological target: T10, KDR (VEGFR2) (Homo sapiens, UniProt P35968)
T10 construct: purchased Life Technologies
T10 sequence (P35968 20-1356): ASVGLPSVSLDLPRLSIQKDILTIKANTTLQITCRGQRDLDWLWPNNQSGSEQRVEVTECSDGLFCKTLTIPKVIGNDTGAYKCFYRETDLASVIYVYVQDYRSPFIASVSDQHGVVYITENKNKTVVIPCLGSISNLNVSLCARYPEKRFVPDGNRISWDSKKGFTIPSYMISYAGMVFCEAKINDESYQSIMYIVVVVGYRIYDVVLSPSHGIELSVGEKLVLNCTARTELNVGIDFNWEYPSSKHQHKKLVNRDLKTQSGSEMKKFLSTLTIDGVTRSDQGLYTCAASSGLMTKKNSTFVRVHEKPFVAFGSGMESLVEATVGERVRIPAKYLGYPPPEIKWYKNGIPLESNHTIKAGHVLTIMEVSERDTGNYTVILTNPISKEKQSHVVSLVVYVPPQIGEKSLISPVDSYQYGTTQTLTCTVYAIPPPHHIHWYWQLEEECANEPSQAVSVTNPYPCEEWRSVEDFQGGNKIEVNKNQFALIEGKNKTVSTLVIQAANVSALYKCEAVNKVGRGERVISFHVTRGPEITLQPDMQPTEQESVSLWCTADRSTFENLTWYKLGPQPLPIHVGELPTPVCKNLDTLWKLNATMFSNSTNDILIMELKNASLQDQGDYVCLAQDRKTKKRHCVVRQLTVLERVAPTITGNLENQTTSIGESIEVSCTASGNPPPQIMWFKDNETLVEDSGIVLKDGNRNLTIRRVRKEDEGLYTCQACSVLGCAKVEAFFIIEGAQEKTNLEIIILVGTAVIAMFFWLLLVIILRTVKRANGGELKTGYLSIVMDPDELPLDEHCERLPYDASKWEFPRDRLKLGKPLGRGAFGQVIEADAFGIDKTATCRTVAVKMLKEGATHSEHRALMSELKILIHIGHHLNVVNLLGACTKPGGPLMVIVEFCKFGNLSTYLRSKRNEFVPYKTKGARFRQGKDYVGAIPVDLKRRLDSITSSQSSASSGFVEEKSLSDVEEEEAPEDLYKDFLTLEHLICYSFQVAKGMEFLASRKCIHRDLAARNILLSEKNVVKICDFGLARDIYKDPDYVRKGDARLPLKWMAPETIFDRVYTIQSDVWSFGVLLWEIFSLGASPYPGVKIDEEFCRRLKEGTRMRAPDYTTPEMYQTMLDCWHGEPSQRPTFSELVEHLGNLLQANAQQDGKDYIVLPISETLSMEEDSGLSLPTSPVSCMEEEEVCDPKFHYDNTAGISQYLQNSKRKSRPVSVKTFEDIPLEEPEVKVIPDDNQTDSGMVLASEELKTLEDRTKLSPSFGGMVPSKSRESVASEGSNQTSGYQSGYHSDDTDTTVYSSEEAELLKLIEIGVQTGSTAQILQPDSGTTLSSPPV
Experimental: as §1

LYN A = LYN A (Homo sapiens, UniProt P07948)
Experimental: as §1

LYN B = LYN B (Homo sapiens, UniProt P07948)
LYN B, sequence (P07948 1-491 isoform P07948-2): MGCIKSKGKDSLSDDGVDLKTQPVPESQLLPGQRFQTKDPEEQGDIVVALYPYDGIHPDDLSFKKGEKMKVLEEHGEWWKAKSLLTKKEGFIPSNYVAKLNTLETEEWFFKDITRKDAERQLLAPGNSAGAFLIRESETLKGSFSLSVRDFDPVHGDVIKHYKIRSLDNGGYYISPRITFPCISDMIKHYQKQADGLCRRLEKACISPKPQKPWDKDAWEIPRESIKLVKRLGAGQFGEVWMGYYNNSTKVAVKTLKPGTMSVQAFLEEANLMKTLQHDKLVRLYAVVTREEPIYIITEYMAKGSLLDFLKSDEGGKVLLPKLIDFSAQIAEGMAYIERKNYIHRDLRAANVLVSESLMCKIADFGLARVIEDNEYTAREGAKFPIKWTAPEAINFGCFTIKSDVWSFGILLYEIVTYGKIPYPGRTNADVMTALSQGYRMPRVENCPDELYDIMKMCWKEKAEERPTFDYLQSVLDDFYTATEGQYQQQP
Experimental: as §1

MET (cMet) = biological target: T11, MET (cMet) (Homo sapiens, UniProt P08581)
T11 construct: purchased Life Technologies
Experimental: as §1

PDGFRA (PDGFR alpha) = biological target: T12, PDGFRA (PDGFR alpha) (Homo sapiens, UniProt P16234)
T12 construct: purchased Life Technologies
Experimental: as §1

PDGFRB (PDGFR beta) = biological target: T13, PDGFRB (PDGFR beta) (Homo sapiens, UniProt P09619)
T13 construct: purchased Life Technologies
Experimental: as §1

PDK1 = PDK1 (Homo sapiens, UniProt O15530)
Experimental: as §1

PIK3C2A (PI3K-C2 alpha) = PIK3C2A (PI3K-C2 alpha) (Homo sapiens, UniProt O00443)
Experimental: as §1

PIK3C2B (PI3K-C2 beta) = PIK3C2B (PI3K-C2 beta) (Homo sapiens, UniProt O00750)
Experimental: as §1

PIK3C3 (hVPS34) = PIK3C3 (hVPS34) (Homo sapiens, UniProt Q8NEB9)
Experimental: as §1

PRKCQ (PKC theta) = PRKCQ (PKC theta) (Homo sapiens, UniProt Q04759)
Experimental: as §1

PRKCZ (PKC zeta) = biological target: T14, PRKCZ (PKC zeta) (Homo sapiens, UniProt Q05513)
T14 construct: purchased Life Technologies
Experimental: as §1

RPS6KB1 (p70S6K) = biological target: T15, RPS6KB1 (p70S6K) (Homo sapiens, UniProt P23443)
T15 construct: purchased Life Technologies
Experimental: as §1

SRC = biological target: T16, SRC (Homo sapiens, UniProt P12931)
T16 construct: purchased Life Technologies
Experimental: as §1

SYK = SYK (Homo sapiens, UniProt P43405)
Experimental: as §1

## Cc1cc2c(cc1C)[n+](Cc1ccccc1Br)cn2Cc1ccc2c(c1)CCO2.[Br-] [B591, 3-(2-bromobenzyl)-1-((2,3-dihydrobenzofuran-5-yl)methyl) -5,6-dimethyl-1H-benzo[d]imidazol-3-ium bromide]
AKT1 (PKB alpha)
  IC50: > 500 µM
AKT2 (PKB beta)
  IC50: > 500 µM
AKT3 (PKB gamma)
  IC50: > 500 µM
AMPK A1/B1/G1
  IC50: > 500 µM
AMPK A2/B1/G1
  IC50: > 500 µM
DNA-PK
  IC50: 448 µM
EGFR (ErbB1)
  IC50: > 500 µM
EPHA1
  IC50: > 500 µM
EPHA8
  IC50: > 500 µM
EPHB1
  IC50: > 500 µM
ERBB2 (HER2)
  IC50: > 500 µM
FGFR1
  IC50: > 500 µM
FGFR2
  IC50: > 500 µM
FGFR4
  IC50: > 500 µM
FLT1 (VEGFR1)
  IC50: > 500 µM
FYN
  IC50: > 500 µM
GSK3A (GSK3 alpha)
  IC50: > 500 µM
GSK3B (GSK3 beta)
  IC50: > 500 µM
JAK1
  IC50: > 500 µM
KDR (VEGFR2)
  IC50: > 500 µM
LYN A
  IC50: > 500 µM
LYN B
  IC50: > 500 µM
MET (cMet)
  IC50: > 500 µM
PDGFRA (PDGFR alpha)
  IC50: > 500 µM
PDGFRB (PDGFR beta)
  IC50: > 500 µM
PDK1
  IC50: > 500 µM
PIK3C2A (PI3K-C2 alpha)
  IC50: 177 µM
PIK3C2B (PI3K-C2 beta)
  IC50: 91 µM
PIK3C3 (hVPS34)
  IC50: 102 µM
PRKCQ (PKC theta)
  IC50: > 500 µM
PRKCZ (PKC zeta)
  IC50: > 500 µM
RPS6KB1 (p70S6K)
  IC50: > 500 µM
SRC
  IC50: > 500 µM
SYK
  IC50: > 500 µM
